Measured values as given in patent US9315520B2, “2-amino-6-methyl-4,4a,5,6-tetrahydropyrano[3,4-d][1,3]thiazin-8a(8H)-yl-1,3-thiazol-4-yl amides” (Pfizer Inc., priority 2014, dated 2016).
Counter-ions that a name gives are not always drawn.

Each molecule was assayed against BACE1 (Homo sapiens (Human), UniProt P56817) (assay: BACE1 Cell-Free Assay (fluorescence polarization)). Conditions: geometric mean of 2-4 determinations unless otherwise indicated (b: ≧5; c: single determination); read-out: BACE1 Cell-free Assay IC50.
Sequence of BACE1 (P56817 46-457): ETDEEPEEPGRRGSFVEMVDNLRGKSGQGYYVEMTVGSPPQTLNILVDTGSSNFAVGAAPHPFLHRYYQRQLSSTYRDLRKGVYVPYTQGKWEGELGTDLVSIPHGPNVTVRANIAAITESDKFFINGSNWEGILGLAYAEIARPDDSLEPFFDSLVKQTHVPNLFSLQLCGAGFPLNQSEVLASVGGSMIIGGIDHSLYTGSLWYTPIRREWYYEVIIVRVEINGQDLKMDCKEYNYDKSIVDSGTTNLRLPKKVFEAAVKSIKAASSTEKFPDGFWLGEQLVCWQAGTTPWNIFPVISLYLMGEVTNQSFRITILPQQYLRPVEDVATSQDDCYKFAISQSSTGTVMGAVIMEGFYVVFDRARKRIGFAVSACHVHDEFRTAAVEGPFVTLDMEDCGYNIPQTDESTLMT
Type: biochemical
Description: This assay measures the inhibition of the beta-secretase enzyme as it cleaves a non-native peptide.
A synthetic APP substrate that can be cleaved by beta-secretase having N-terminal biotin and made fluorescent by the covalent attachment of Oregon Green at the Cys residue is used to assay beta-secretase activity in the presence or absence of the inhibitory compounds. […] The BACE1 enzyme is affinity purified material from conditioned media of CHO-K1 cells that have been transfected with a soluble BACE construct (BACE1deltaTM96His). […] Plates are covered and incubated for 3 hours at 37° C. […] The activity of the beta-secretase enzyme is detected by changes in the fluorescence polarization that occur when the substrate is cleaved by the enzyme.
`C[C@H]1C[C@H]2CSC(N)=N[C@@]2(c2nc(NC(=O)c3coc(CF)n3)cs2)CO1` [Example 3, N-{2-[(4aR,6S,8aR)-2-amino-6-methyl-4,4a,5,6-tetrahydropyrano[3,4-d][1,3]thiazin-8a(8H)-yl]-1,3-thiazol-4-yl}-2-(fluoromethyl)-1,3-oxazole-4-carboxamide] gave an IC50 of 0.007 µM. `C[C@H]1C[C@H]2CSC(N)=N[C@@]2(c2nc(NC(=O)c3ccn(C(F)F)n3)cs2)CO1` [Example 4, N-{2-[(4aR,6S,8aR)-2-amino-6-methyl-4,4a,5,6-tetrahydropyrano[3,4-d][1,3]thiazin-8a(8H)-yl]-1,3-thiazol-4-yl}-1-(difluoromethyl)-1H-pyrazole-3-carboxamide] was tested, and the IC50 was 0.009 µM. With `C[C@H]1C[C@H]2CSC(N)=N[C@@]2(c2nc(NC(=O)c3ccc(C#N)cn3)cs2)CO1` [Example 5, N-{2-[(4aR,6S,8aR)-2-amino-6-methyl-4,4a,5,6-tetrahydropyrano[3,4-d][1,3]thiazin-8a(8H)-yl]-1,3-thiazol-4-yl}-5-cyanopyridine-2-carboxamide] the IC50 was 0.022 µM. In the case of `C[C@H]1C[C@H]2CSC(N)=N[C@@]2(c2nc(NC(=O)c3ccc(F)cn3)cs2)CO1` [Example 9, N-{2-[(4aR,6S,8aR)-2-amino-6-methyl-4,4a,5,6-tetrahydropyrano[3,4-d][1,3]thiazin-8a(8H)-yl]-1,3-thiazol-4-yl}-5-fluoropyridine-2-carboxamide], the IC50 is reported as 0.189 µM. `COc1cnc(C(=O)Nc2csc([C@]34CO[C@@H](C)C[C@H]3CSC(N)=N4)n2)cn1` [Example 10, N-{2-[(4aR,6S,8aR)-2-amino-6-methyl-4,4a,5,6-tetrahydropyrano[3,4-d][1,3]thiazin-8a(8H)-yl]-1,3-thiazol-4-yl}-5-methoxypyrazine-2-carboxamide] was tested, and the IC50 was 0.536 µM. In the case of `C[C@H]1C[C@H]2CSC(N)=N[C@@]2(c2nc(NC(=O)c3cnc(CF)cn3)cs2)CO1` [Example 11, N-{2-[(4aR,6S,8aR)-2-amino-6-methyl-4,4a,5,6-tetrahydropyrano[3,4-d][1,3]thiazin-8a(8H)-yl]-1,3-thiazol-4-yl}-5-(fluoromethyl)pyrazine-2-carboxamide], the IC50 is reported as 0.315 µM. `C[C@H]1C[C@H]2CSC(N)=N[C@@]2(c2nc(NC(=O)c3cnc(OCC(F)F)cn3)cs2)CO1` [Example 12, N-{2-[(4aR,6S,8aR)-2-amino-6-methyl-4,4a,5,6-tetrahydropyrano[3,4-d][1,3]thiazin-8a(8H)-yl]-1,3-thiazol-4-yl}-5-(2,2-difluoroethoxy)pyrazine-2-carboxamide] was tested, and the IC50 was 0.28 µM. `C[C@H]1C[C@H]2CSC(N)=N[C@@]2(c2nc(NC(=O)c3cnc(C(F)F)cn3)cs2)CO1` [Example 15, N-{2-[(4aR,6S,8aR)-2-amino-6-methyl-4,4a,5,6-tetrahydropyrano[3,4-d][1,3]thiazin-8a(8H)-yl]-1,3-thiazol-4-yl}-5-(difluoromethyl)pyrazine-2-carboxamide] gave an IC50 of 0.145 µM. Work on `C[C@H]1C[C@H]2CSC(N)=N[C@@]2(c2nc(NC(=O)c3ccc(C(F)(F)F)cn3)cs2)CO1` [Example 17, N-{2-[(4aR,6S,8aR)-2-amino-6-methyl-4,4a,5,6-tetrahydropyrano[3,4-d][1,3]thiazin-8a(8H)-yl]-1,3-thiazol-4-yl}-5-(trifluoromethyl)pyridine-2-carboxamide] yielded an IC50 of 0.054 µM. `C[C@H]1C[C@H]2CSC(N)=N[C@@]2(c2nc(NC(=O)c3ncc(F)cc3F)cs2)CO1` [Example 18, N-{2-[(4aR,6S,8aR)-2-amino-6-methyl-4,4a,5,6-tetrahydropyrano[3,4-d][1,3]thiazin-8a(8H)-yl]-1,3-thiazol-4-yl}-3,5-difluoropyridine-2-carboxamide] showed an IC50 of 0.153 µM. With `COc1ccc(C(=O)Nc2csc([C@]34CO[C@@H](C)C[C@H]3CSC(N)=N4)n2)nc1` [Example 19, N-{2-[(4aR,6S,8aR)-2-amino-6-methyl-4,4a,5,6-tetrahydropyrano[3,4-d][1,3]thiazin-8a(8H)-yl]-1,3-thiazol-4-yl}-5-methoxypyridine-2-carboxamide] the IC50 was 0.259 µM. `C[C@H]1C[C@H]2CSC(N)=N[C@@]2(c2nc(NC(=O)c3ccc(OC(F)(F)F)cn3)cs2)CO1` [Example 20, N-{2-[(4aR,6S,8aR)-2-amino-6-methyl-4,4a,5,6-tetrahydropyrano[3,4-d][1,3]thiazin-8a(8H)-yl]-1,3-thiazol-4-yl}-5-(trifluoromethoxy)pyridine-2-carboxamide] gave an IC50 of 0.108 µM. Work on `C[C@H]1C[C@H]2CSC(N)=N[C@@]2(c2nc(NC(=O)c3ccc(OC(F)F)cc3)cs2)CO1` [Example 21, N-{2-[(4aR,6S,8aR)-2-amino-6-methyl-4,4a,5,6-tetrahydropyrano[3,4-d][1,3]thiazin-8a(8H)-yl]-1,3-thiazol-4-yl}-4-(difluoromethoxy)benzamide] yielded an IC50 of 0.106 µM. In the case of `CC#CCOc1cnc(C(=O)Nc2csc([C@]34CO[C@@H](C)C[C@H]3CSC(N)=N4)n2)cn1` [Example 22, N-{2-[(4aR,6S,8aR)-2-amino-6-methyl-4,4a,5,6-tetrahydropyrano[3,4-d][1,3]thiazin-8a(8H)-yl]-1,3-thiazol-4-yl}-5-(but-2-yn-1-yloxy)pyrazine-2-carboxamide], the IC50 is reported as 0.013 µM. In the case of `C[C@H]1C[C@H]2CSC(N)=N[C@@]2(c2nc(NC(=O)c3cc4ccccn4n3)cs2)CO1` [Example 23, N-{2-[(4aR,6S,8aR)-2-amino-6-methyl-4,4a,5,6-tetrahydropyrano[3,4-d][1,3]thiazin-8a(8H)-yl]-1,3-thiazol-4-yl}pyrazolo[1,5-a]pyridine-2-carboxamide], the IC50 is reported as 1 µM. In the case of `C[C@H]1C[C@H]2CSC(N)=N[C@@]2(c2nc(NC(=O)c3ccn(C)n3)cs2)CO1` [Example 24, N-{2-[(4aR,6S,8aR)-2-amino-6-methyl-4,4a,5,6-tetrahydropyrano[3,4-d][1,3]thiazin-8a(8H)-yl]-1,3-thiazol-4-yl}-1-methyl-1H-pyrazole-3-carboxamide], the IC50 is reported as 0.081 µM. Work on `C[C@H]1C[C@H]2CSC(N)=N[C@@]2(c2nc(NC(=O)c3ccc(C(F)F)cn3)cs2)CO1` [Example 25, N-{2-[(4aR,6S,8aR)-2-amino-6-methyl-4,4a,5,6-tetrahydropyrano[3,4-d][1,3]thiazin-8a(8H)-yl]-1,3-thiazol-4-yl}-5-(difluoromethyl)pyridine-2-carboxamide] yielded an IC50 of 0.074 µM. In the case of `C[C@H]1C[C@H]2CSC(N)=N[C@@]2(c2nc(NC(=O)c3ccc(OCF)cn3)cs2)CO1` [Example 26, N-{2-[(4aR,6S,8aR)-2-amino-6-methyl-4,4a,5,6-tetrahydropyrano[3,4-d][1,3]thiazin-8a(8H)-yl]-1,3-thiazol-4-yl}-5-(fluoromethoxy)pyridine-2-carboxamide], the IC50 is reported as 0.068 µM. Molecule `C[C@H]1C[C@H]2CSC(N)=N[C@@]2(c2nc(NC(=O)c3coc(C4CC4)n3)cs2)CO1` [Example 27, N-{2-[(4aR,6S,8aR)-2-amino-6-methyl-4,4a,5,6-tetrahydropyrano[3,4-d][1,3]thiazin-8a(8H)-yl]-1,3-thiazol-4-yl}-2-cyclopropyl-1,3-oxazole-4-carboxamide] has an IC50 of 1.31 µM. For `C[C@H]1C[C@H]2CSC(N)=N[C@@]2(c2nc(NC(=O)c3cnccn3)cs2)CO1` [Example 28, N-{2-[(4aR,6S,8aR)-2-amino-6-methyl-4,4a,5,6-tetrahydropyrano[3,4-d][1,3]thiazin-8a(8H)-yl]-1,3-thiazol-4-yl}pyrazine-2-carboxamide], the IC50 was 0.647 µM. In the case of `Cc1nn(C)cc1C(=O)Nc1csc([C@]23CO[C@@H](C)C[C@H]2CSC(N)=N3)n1` [Example 29, N-{2-[(4aR,6S,8aR)-2-amino-6-methyl-4,4a,5,6-tetrahydropyrano[3,4-d][1,3]thiazin-8a(8H)-yl]-1,3-thiazol-4-yl}-1,3-dimethyl-1H-pyrazole-4-carboxamide], the IC50 is reported as 1.99 µM. In the case of `C[C@H]1C[C@H]2CSC(N)=N[C@@]2(c2nc(NC(=O)c3cccnn3)cs2)CO1` [Example 30, N-{2-[(4aR,6S,8aR)-2-amino-6-methyl-4,4a,5,6-tetrahydropyrano[3,4-d][1,3]thiazin-8a(8H)-yl]-1,3-thiazol-4-yl}pyridazine-3-carboxamide], the IC50 is reported as 2.16 µM. With `C[C@H]1C[C@H]2CSC(N)=N[C@@]2(c2nc(NC(=O)c3cc(C4CC4)on3)cs2)CO1` [Example 31, N-{2-[(4aR,6S,8aR)-2-amino-6-methyl-4,4a,5,6-tetrahydropyrano[3,4-d][1,3]thiazin-8a(8H)-yl]-1,3-thiazol-4-yl}-5-cyclopropyl-1,2-oxazole-3-carboxamide] the IC50 was 3.82 µM.

Same assay, conditions: read-out: BACE1 Cell-free Assay IC50
With `Cc1cc(F)cnc1C(=O)Nc1csc([C@]23CO[C@@H](C)C[C@H]2CSC(N)=N3)n1` [Example 13, N-{2-[(4aR,6S,8aR)-2-amino-6-methyl-4,4a,5,6-tetrahydropyrano[3,4-d][1,3]thiazin-8a(8H)-yl]-1,3-thiazol-4-yl}-5-fluoro-3-methylpyridine-2-carboxamide, formate salt] the IC50 was 0.09 µM. With `C[C@H]1C[C@H]2CSC(N)=N[C@@]2(c2nc(NC(=O)c3ccc(F)cc3)cs2)CO1` [Example 14, N-{2-[(4aR,6S,8aR)-2-amino-6-methyl-4,4a,5,6-tetrahydropyrano[3,4-d][1,3]thiazin-8a(8H)-yl]-1,3-thiazol-4-yl}-4-fluorobenzamide, formate salt] the IC50 was 0.866 µM. `C[C@H]1C[C@H]2CSC(N)=N[C@@]2(c2nc(NC(=O)c3cnc(C(F)(F)F)cn3)cs2)CO1` [Example 16, N-{2-[(4aR,6S,8aR)-2-amino-6-methyl-4,4a,5,6-tetrahydropyrano[3,4-d][1,3]thiazin-8a(8H)-yl]-1,3-thiazol-4-yl}-5-(trifluoromethyl)pyrazine-2-carboxamide, formate salt] gave an IC50 of 0.193 µM.
